Data: PubChem BioAssay AID720605 (Broad Institute, 2013)

Test system: U-251 glioblastoma viability, Alamar Blue, 8-48 h
Assay: U-251 glioblastoma cell viability loss, dose response, HRAS target identification, Alamar Blue fluorescence, 8/24/48 h, dry powder (AID 720605)

Structure (SMILES) | AC50 (measured here: 8 h treatment) [nM] | AC50 (measured here: 24 h treatment) [nM] | AC50 (measured here: 48 h treatment) [nM]
Cc1onc(C(=O)N2CCN(C(c3ccc(Cl)cc3)c3ccc(Cl)cc3)CC2)c1[N+](=O)[O-] | 383 | 359 | 293
C#CCCCC(=O)NCCOCCOCCOc1ccc(N(C(=O)CCl)C(C(=O)NCCc2ccccc2)c2cccs2)cc1Cl (stereo not given) | 1990 | 920 | 855
COc1ccc(N(C(=O)CCl)C(C(=O)NCCc2ccccc2)c2cccs2)cc1Cl (stereo not given) | 66.3 | 54.3 | 51
COC(=O)c1ccc([C@@H]2c3[nH]c4ccccc4c3C[C@@H](C(=O)OC)N2C(=O)CCl)cc1 | 14.4 | 42.7 | 45.4
CC(C)(C)OC(=O)NCCOCCOCCOc1ccc(N(C(=O)CCl)C(C(=O)NCCc2ccccc2)c2cccs2)cc1Cl (stereo not given) | 297 | 229 | 330
